Data published in BindingDB's records for doi:10.7270/Q23N21VG (Nmmlsc, 2009).

molecular target: T1, GTPase KRas [1-37] (Homo sapiens, UniProt G3V5T7); experiment: inhibitors of GTP binding, activated Ras, SAR follow-up, biochemical, additional analogs, activated mutant, multiplex flow cytometry, Ki (AID 2043)
T1 construct: 1-37
T1 sequence (G3V5T7 whole entry): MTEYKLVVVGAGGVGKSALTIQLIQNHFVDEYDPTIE

| SMILES | EC50 [µM] |
| --- | --- |
| O=C1Nc2c(Cl)cccc2C1=C1Nc2ccccc2C1=O | > 30 |
| O=C1Nc2c(Br)cccc2C1=C1Nc2ccccc2C1=O | > 30 |
| O=C1Nc2c(F)cccc2C1=C1Nc2ccccc2C1=O | > 30 |
| O=C1NC(=O)/C(=C2/C(=O)Nc3ccccc32)N1 | > 30 |
| O=C1Nc2ccc(Br)cc2C1=C1Nc2ccccc2C1=O | > 30 |
| O=C1Nc2ccccc2/C1=C1/Nc2ccccc2C1=O [2-[(3Z)-2-oxo-2,3-dihydro-1H-indol-3-ylidene]-2,3-dihydro-1H-indol-3-one] | > 30 |
| O=C1N=c2ccccc2=C1c1[nH]c2ccccc2c1NO [3-[3-(hydroxyamino)-1H-indol-2-yl]-2-indolone] | > 30 |
| O=C1N=c2ccc(Br)cc2=C1c1[nH]c2ccccc2c1NO [5-bromanyl-3-[3-(oxidanylamino)-1H-indol-2-yl]indol-2-one] | > 30 |
| O=C1N=c2c(Br)cccc2=C1c1[nH]c2ccccc2c1NO [7-bromanyl-3-[3-(oxidanylamino)-1H-indol-2-yl]indol-2-one] | > 30 |
| O=C1N=c2c(Cl)cccc2=C1c1[nH]c2ccccc2c1NO [7-chloro-3-[3-(hydroxyamino)-1H-indol-2-yl]-2-indolone] | > 30 |
| O=C1N=c2c(F)cccc2=C1c1[nH]c2ccccc2c1NO [7-fluoro-3-[3-(hydroxyamino)-1H-indol-2-yl]-2-indolone] | > 30 |
| O=C1NC(=S)N/C1=C1\C(=O)Nc2ccccc21 [(3Z)-3-(5-oxo-2-sulfanylideneimidazolidin-4-ylidene)-1H-indol-2-one] | > 30 |
